Here are results for eight compounds from paper PMC10220648 (Viruses, 2023).

Like-named read-outs stand apart in the source and are kept apart here.

For one data set, the system named is HIV-1CH58TF. In words: microbe, parasite or virus in culture. The class given is cell-based. The settings on record: TZM-bl cells, average ± SD of at least three independent experiments, read-out: Viral neutralization IC50, HIV-1CH58TF.
A further data set has as its system VSV-G pseudovirus. Briefly: microbe, parasite or virus in culture. The class given is cell-based. Particulars: TZM-bl, read-out: Viral neutralization IC50, VSV-G Pseudovirus.
The next data set relates to HIV-1AD8. Briefly: microbe, parasite or virus in culture. The class given is cell-based. Particulars: TZM-bl cells, tier-2 virus, average ± SD of at least three independent experiments, read-out: Viral neutralization IC50, HIV-1AD8.
Data set [1] has as its system HIV-1AD8-infected primary CD4+ T cells. Briefly: FACS-based ADCC assay with HIV+ plasma. The class given is cell-based, human. Particulars: 50µM compound; plasma 1/1000; effector/target 10:1.
Another data set deals with LMHT gp120CRF01_AE coree (Human immunodeficiency virus type 1, UniProt Q0ED31, DEL123-198/DEL305-311/DEL316-323/H375T/H60Y/I469M/K470R/N199G/N304G/N468D/P313S/Q104H/Q315S/T200G/V107I). In words: biochemical. The class given is binding, HIV-1.
In data set [2] the test system is HIV-1AD8-infected primary CD4+ T cells. Briefly: HIV+ plasma cell-surface staining of infected cells. Particulars: 50µM compound; plasma 1:1000. The class given is cell-based, human.
Data set [3] has as its system HIV-1JRFL-infected primary CD4+ T cells. Briefly: Anti-CoRBS 17b mAb binding to infected cells (flow cytometry). The class given is cell-based, human. Particulars: 50 µM CD4mc; p24+ population; MFI.
Data set [4] relates to HIV-1CH58TF-infected primary CD4+ T cells. Briefly: HIV+ plasma cell-surface staining of infected cells. The class given is cell-based, human. Particulars: 50µM compound; plasma 1:1000.
The test system is the same in data set [5]. In words: FACS-based ADCC assay with HIV+ plasma. Particulars: 50µM compound; plasma 1/1000; effector/target 10:1. The class given is cell-based, human.
The test system is the same in data set [6]. In words: Anti-CoRBS 17b mAb binding to infected cells (flow cytometry). The class given is cell-based, human. Particulars: 50 µM CD4mc; p24+ population; MFI.
The next data set relates to HIV-1JRFL. The class given is cell-based. Particulars: TZM-bl cells; tier-2 virus; average ± SD of at least three independent experiments.
For data set [7], the system named is HIV-1JRFL-infected primary CD4+ T cells. Briefly: FACS-based ADCC assay with HIV+ plasma. Particulars: 50µM compound; plasma 1/1000; effector/target 10:1. The class given is cell-based, human.
Data set [8] shares this test system. Briefly: HIV+ plasma cell-surface staining of infected cells. The class given is cell-based, human. Particulars: 50µM compound; plasma 1:1000.
Where [9] appears, read: Human immunodeficiency virus 1, TZM-bl.

The term IC50 denotes the concentration at which inhibition is half-maximal.

Turning to `NCC(=O)N1CCN(C(=O)N2C[C@H](CO)C[C@H](C(=O)Nc3ccc(Cl)c(F)c3)C2)CC1` (racemic) [DL-I-101], the IC50 with HIV-1CH58TF (setting [9]) is 0.16 ± 0.03 µM; in the data set with VSV-G pseudovirus it was above 100 µM; in the data set with HIV-1AD8 (setting [9]), 10.2 ± 3.1 µM; on LMHT gp120CRF01_AE coree, 0.308 µM. In addition, the “Susceptibility to ADCC mediated by HIV+ plasma, HIV-1AD8” value in [1] is listed as “translated into ADCC”. Further, the “HIV+ plasma binding (recognition of infected cells), HIV-1AD8” value (from here on “HIV+ plasma binding … HIV-1AD8”) in [2] is given as “did”. In addition, in data set [3], the “17b binding (exposure of the CoRBS), HIV-1JRFL-infected cells” value (“17b binding … HIV-1JRFL-infected cells” for short) is given as “successfully exposed the CoRBS”.

As to `O=C(O)CN1CCN(C(=O)N2C[C@H](CO)C[C@H](C(=O)Nc3ccc(Cl)c(F)c3)C2)CC1` (racemic) [DL-I-102], the IC50 with HIV-1CH58TF (setting [9]) is 0.66 ± 0.25 µM; in the data set on VSV-G pseudovirus it was above 100 µM; in the data set on HIV-1AD8 (setting [9]), 87 ± 39 µM; against LMHT gp120CRF01_AE coree it was 0.561 µM. Further, the “17b binding … HIV-1JRFL-infected cells” value in data set [3] is recorded as “successfully exposed the CoRBS”.

Take `CNCc1ccc2c(c1)C[C@H](CNC(=N)N)[C@H]2NC(=O)C(=O)Nc1ccc(Cl)c(F)c1` [BNM-III-170, reference compound]: the IC50 with HIV-1CH58TF (setting [9]) is 0.0336 µM; in the data set with HIV-1CH58TF, 0.033 ± 0.01 µM; in the data set on VSV-G pseudovirus, above 100 µM; in the data set with HIV-1AD8 (setting [9]) it was 3.75 µM; in the data set on HIV-1AD8 it was 3.75 ± 1.3 µM. The “HIV+ plasma binding (recognition of infected cells), HIV-1CH58TF” value in [4] is reported as “enhanced the recognition”. Further, the “Susceptibility to ADCC mediated by HIV+ plasma, HIV-1CH58TF” value in [5] is recorded as “enhanced”.

Consider `NCCNC(=O)N1CCC[C@H](C(=O)Nc2ccc(Cl)c(F)c2)C1` [MCG-IV-210, reference compound], for which the IC50 in the data set on HIV-1CH58TF (setting [9]) was 3.46 ± 1.06 µM; in the data set on VSV-G pseudovirus, above 100 µM; in the data set with HIV-1AD8 (setting [9]), above 100 µM; against LMHT gp120CRF01_AE coree, 0.969 µM. Further, the “HIV+ plasma binding (recognition of infected cells), HIV-1CH58TF” value in data set [4] was “enhanced the recognition”. Moreover, the “17b binding (exposure of the CoRBS), HIV-1CH58TF-infected cells” value in [6] is given as “exposed the CoRBS”. The “Viral neutralization IC50, HIV-1JRFL” value in the data set with HIV-1JRFL is “unable to inhibit viral infection”. In data set [2], the “HIV+ plasma binding … HIV-1AD8” value is listed as “did not promote HIV+ plasma binding”. The “Susceptibility to ADCC mediated by HIV+ plasma, HIV-1CH58TF” value in data set [5] is “enhanced”. The “17b binding … HIV-1JRFL-infected cells” value in data set [3] is given as “but not the tier-2 HIV-1JRFL”.

For `CN1CCN(C(=O)N2CCC[C@H](C(=O)Nc3ccc(Cl)c(F)c3)C2)CC1` [TFH-I-070-A6], the concentration for half-maximal inhibition (IC50) is 0.45 ± 0.09 µM in the data set with HIV-1CH58TF (setting [9]), above 100 µM in the data set on VSV-G pseudovirus and 9.59 ± 3.4 µM in the data set with HIV-1AD8 (setting [9]). The “HIV+ plasma binding … HIV-1AD8” value in data set [2] is listed as “did”. In data set [3], the “17b binding … HIV-1JRFL-infected cells” value is given as “successfully exposed the CoRBS”.

For `CC1CN(C(=O)N2CCCC(C(=O)Nc3ccc(Cl)c(F)c3)C2)CC(C)N1C` (stereo not shown) [TFH-I-116-D1], the IC50 in the data set with HIV-1CH58TF (setting [9]) was 0.0655 µM; in the data set on VSV-G pseudovirus it was above 100 µM; with HIV-1AD8 (setting [9]), 4.8 µM. In addition, in data set [7], the “Susceptibility to ADCC mediated by HIV+ plasma, HIV-1JRFL” value is “not translated into enhanced ADCC”. Moreover, the “Susceptibility to ADCC mediated by HIV+ plasma, HIV-1AD8” value in [1] is “translated into ADCC”. The “HIV+ plasma binding (recognition of infected cells), HIV-1JRFL” value in [8] is listed as “recognized the infected cells”. For the same compound, the “HIV+ plasma binding … HIV-1AD8” value in data set [2] is “did”. Also, in data set [3], the “17b binding … HIV-1JRFL-infected cells” value is given as “successfully exposed the CoRBS”.

For the compound `CN1CCN(C(=O)N2C[C@H](CN)C[C@H](C(=O)Nc3ccc(Cl)c(F)c3)C2)CC1` [ZXC-I-090], the IC50 was 2.63 ± 0.5 µM in the data set with HIV-1CH58TF (setting [9]), above 100 µM with VSV-G pseudovirus and above 100 µM in the data set on HIV-1AD8 (setting [9]).

On to `C[C@@H]1CN(C(=O)N2C[C@H](CN)C[C@H](C(=O)Nc3ccc(Cl)c(F)c3)C2)C[C@H](C)N1C` [ZXC-I-092], for which the figures for the IC50 with HIV-1CH58TF (setting [9]), with VSV-G pseudovirus and in the data set on HIV-1AD8 (setting [9]) were 0.75 ± 0.12 µM, above 100 µM and 34 ± 13.8 µM, respectively. Further, the “17b binding … HIV-1JRFL-infected cells” value in data set [3] is reported as “successfully exposed the CoRBS”.
